Key:
LNCaP cells = test: Cell proliferation inhibition assay in LNCaP cells (0.2 nM DHT, CellTiter-Glo, 7 days); format: cell-based, human; conditions: Homo sapiens, 168 h
Method: • 1. The human prostate cancer cell lines 22RV1 and LNCaP were purchased from ATCC. […] The cell concentration was adjusted to an appropriate concentration (determined based on the results of cell density optimization experiments), and the cells were seeded into a 96-well plate. A 100 µL cell suspension was added, resulting in 3000 cells per well. […] On the second day, for 22Rv1 cells, test compounds at different concentrations were added, and the cells were incubated at 37°C in a 5% CO2 incubator for 7 days; for LNCaP cells, test compounds at different concentrations were added first, and after 1 hour of treatment, 0.2 nM DHT was added. The cells were then incubated at 37°C in a 5% CO2 incubator for 7 days. • 4. After the incubation period, a volume of CellTiter-Glo detection reagent equal to the volume of the culture medium was added to each well. The plate was shaken and mixed thoroughly for 5 minutes, then incubated at room temperature for 10 minutes. Readings were taken using a PerkinElmer EnVision microplate reader. • 5.
The IC50 curve was fitted and the IC50 value was calculated using the software GraphPad Prism 8 with the calculation formula XY-analysis/Nonlinear regression (curve fit)/Dose response-Inhibition/log (inhibitor) vs. response-Variable slope (four parameters).

[1] = Mouse pharmacokinetic test; format: in vivo, ICR mice; conditions: plasma, po, 30 mg/kg, PO-30mpk; for Tmax: read-out: Tmax
Method: Formulation preparation: The dosing solutions were prepared on the day of administration.
Six healthy male naive ICR mice weighing 25-30 g were selected and divided into two groups (intravenous and oral groups), with three mice in each group, and administered a single dose. […] Feeding was resumed 4 h after administration. Timing was initiated following intravenous and oral administration. […] The collected whole blood was briefly vortexed twice for mixing, placed on wet ice, and centrifuged at 4°C and 8000 rpm for 5 min within 1 h. The supernatant plasma was collected and stored at -80°C until processing and analysis. Table 3: Pharmacokinetics in mice

22RV1 cells = test: Cell proliferation inhibition assay in 22RV1 cells (CellTiter-Glo, 7 days); format: cell-based, human; conditions: Homo sapiens, 22Rv1, 168 h
How it was run: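 22RV1 cells received compound alone; LNCaP cells were stimulated with 0.2 nM DHT added 1 h after compound. Seeding was 3000 cells/well.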

Compound: CC(C)(c1ccc(-c2cnc(OCc3ccnc(N4CC(S(=N)(=O)C5CC5)C4)n3)cn2)cc1)c1cc(Cl)c(OCCCl)c(C#N)c1 (single isomer, unassigned) [Compound 350B]
- IC50 (LNCaP cells): 500 nM

Compound: CC(C)(c1ccc(-c2ncc(OCc3ccnc(N4CC(S(C)(=N)=O)C4)n3)cn2)cc1)c1cc(Cl)c(OCCCl)c(C#N)c1 (single isomer, unassigned) [Compound 366A]
- IC50 (LNCaP cells): 970 nM

Compound: CC(C)(c1ccc(-c2ccc(COc3ccnc(P(C)(C)=O)n3)cc2)cc1)c1cc(Cl)c(OCCCl)c(C#N)c1 [Compound 253]
- AUC(0-inf) [1]: 298 µg·h/mL
- Cmax [1]: 20800 ng/mL
- half-life [1]: 7.3 h
- Tmax [1]: 5 h
- IC50 (22RV1 cells): 1060 nM

Compound: CNS(=O)(=O)C1CN(c2nccc(COc3ccc(-c4ccc(C(C)(C)c5cc(Cl)c(OCCCl)c(C#N)c5)cc4)nc3)n2)C1 [Compound 258]
- AUC(0-inf) [1]: 323 µg·h/mL
- Cmax [1]: 39200 ng/mL
- half-life [1]: 5.2 h
- Tmax [1]: 3 h
- IC50 (22RV1 cells): 630 nM

Compound: CC(C)(c1ccc(-c2ncc(OCc3ccc(-c4cnc(P(C)(C)=O)nc4)cc3)cn2)cc1)c1cc(Cl)c(OCCCl)c(C#N)c1 [Compound 272]
- AUC(0-inf) [1]: 755 µg·h/mL
- Cmax [1]: 53200 ng/mL
- half-life [1]: 5.8 h
- Tmax [1]: 4 h
- IC50 (22RV1 cells): 650 nM

Compound: C[C@H](Cl)COc1c(Cl)cc(C(C)(C)c2ccc(-c3ccc(OCc4ccnc(P(C)(C)=O)n4)cc3)cc2)cc1C#N [Compound 283]
- AUC(0-inf) [1]: 277 µg·h/mL
- Cmax [1]: 18700 ng/mL
- half-life [1]: 9.3 h
- Tmax [1]: 4 h
- IC50 (22RV1 cells): 840 nM

Compound: CC(C)(c1ccc(-c2ccc(OCC3CC4(C3)CS(=N)(=O)C4)cc2)cc1)c1cc(Cl)c(OCCCl)c(C#N)c1 (stereo not shown) [Compound 308]
- AUC(0-inf) [1]: 186 µg·h/mL
- Cmax [1]: 14300 ng/mL
- half-life [1]: 4.45 h
- Tmax [1]: 3 h
- IC50 (22RV1 cells): 750 nM

Compound: CC(C)(c1ccc(-c2cccc3c(OCc4ccnc(P(C)(C)=O)n4)nccc23)cc1)c1cc(Cl)c(OCCCl)c(C#N)c1 [Compound 345]
- IC50 (LNCaP cells): 230 nM

Compound: CC(C)(c1ccc(-c2ccc(OCC34CC(c5cnc(P(C)(C)=O)nc5)(C3)C4)cn2)cc1)c1cc(Cl)c(OCCCl)c(C#N)c1 [Compound 367]
- IC50 (LNCaP cells): 910 nM

Compound: CC(C)(c1ccc(-c2cnc(OCc3ccnc(N4CC(S(C)(=N)=O)C4)n3)nc2)cc1)c1cc(Cl)c(OCCCl)c(C#N)c1 (stereo not shown) [Compound 372]
- IC50 (LNCaP cells): 660 nM

Compound: CC(C)(c1ccc(-c2cnc(OCc3ccc(-c4cnc(P(C)(C)=O)nc4)nc3)nc2)cc1)c1cc(Cl)c(OCCCl)c(C#N)c1 [Compound 374]
- IC50 (LNCaP cells): 920 nM

Compound: CC(C)(c1ccc(-c2cnc(COc3ccnc(N4CC(S(C)(=O)=O)C4)n3)nc2)cc1)c1cc(Cl)c(OCCCl)c(C#N)c1 [Compound 383]
- IC50 (LNCaP cells): 580 nM

Compound: CC(C)(c1ccc(-c2ccc(Oc3ncc(-c4cnc(CP(C)(C)=O)nc4)cn3)cc2)cc1)c1cc(Cl)c(OCCCl)c(C#N)c1 [Compound 399]
- IC50 (LNCaP cells): 970 nM

Compound: CC(C)(c1ccc(-c2ccc(OCc3ccnc(N4CC5(C4)CS(=N)(=O)C5)n3)nc2)cc1)c1cc(Cl)c(OCCCl)c(C#N)c1 [Compound 400]
- IC50 (LNCaP cells): 690 nM

Compound: CC(C)(c1ccc(-c2ccc(OCc3ccnc(N4CC5(CCS5(=N)=O)C4)n3)cn2)cc1)c1cc(Cl)c(OCCCl)c(C#N)c1 (stereo not shown) [Compound 404]
- IC50 (LNCaP cells): 490 nM

Compound: CC(C)(c1ccc(-c2ccc(OCc3cnc(-c4cnc(P(C)(C)=O)nc4)cn3)cc2)cc1)c1cc(Cl)c(OCCCl)c(C#N)c1 [Compound 408]
- IC50 (LNCaP cells): 180 nM

Compound: CC(C)(c1ccc(-c2ccc(OCc3ccnc(N4CC(S(C)(=O)=NC#N)C4)n3)cn2)cc1)c1cc(Cl)c(OCCCl)c(C#N)c1 (stereo not shown) [Compound 413]
- IC50 (LNCaP cells): 800 nM

Compound: CC(C)(c1ccc(-c2ccc(OCc3ccnc(N4CC(S(C)(=O)=O)C4)n3)nn2)cc1)c1cc(Cl)c(OCCCl)c(C#N)c1 [Compound 423]
- IC50 (LNCaP cells): 460 nM

Compound: CC(C)(c1ccc(-c2ncc(OCc3ccc(-c4cnc(P(C)(C)=O)nc4)nc3)cn2)cc1)c1cc(Cl)c(OCCCl)c(C#N)c1 [Compound 426]
- IC50 (LNCaP cells): 940 nM

Compound: CC(C)(c1ccc(-c2ccc(COc3ccnc(P(C)(C)=O)n3)nc2)cc1)c1cc(Cl)c(OCCCl)c(C#N)c1 [Compound 427]
- IC50 (LNCaP cells): 830 nM

Reference: patent EP4778922A1, “BICYCLIC COMPOUND, AND PREPARATION METHOD THEREFOR AND PHARMACEUTICAL USE THEREOF” (Shanghai Jeyou Pharmaceutical Co., Ltd., priority 2023, dated 2025)
